According to patent US10039764B2, “Treatment and diagnosis of cancer and precancerous conditions using PDE10A inhibitors and methods to measure PDE10A expression” (University of South Alabama, priority 2013, dated 2018):
Where two headings read alike, the source gives them in different places.

Legend:
[1] = tested on: HT29 human colon tumor cells; experiment: Growth assay (Cell Titer Glo), HT29; assay type: cell-based; details: Homo sapiens, HT-29
Description: (§1) All cell lines comprising the NCI-60 cancer cell panel were obtained from the NCI Developmental Therapeutics Program and maintained under the same standard conditions. The human normal colonocyte (NCM460) cell line was purchased from Incell (San Antonio, Tex.) and grown according to the manufacturer's specifications. The human colon adenoma cell line, LT97, was a gift from Dr. Brigitte Marian (Medical University Vienna, Austria) and grown according to the provider's specifications. Human mammary epithelial cells (HMEC) were purchased from Lonzo and grown using culture conditions as recommended by the supplier.
(§2) Ninety-six (96)-well microtiter plates were seeded at a density of 5,000 cells per well. For drug treatment, cells were treated with compounds or vehicle control, and incubated at 37° C. for 72 hours. For siRNA assays, cells were transfected with siRNA under the same conditions described above. The effect of treatment with inhibitors or siRNA knockdown of PDE10A on growth was measured using the Cell Titer Glo Assay (Promega), which measures viable cell number based on ATP content.
(§3) Effect of various PDE isozyme inhibitors on the growth of human colon tumor cells HCT116 and HT29 was determined using the Cell Titer Glo Cell Viability Assay (Promega) following 72 hours of treatment.
(§4) The effect of the inhibitors on the growth of human colon tumor and normal colonocytes was measured using the Cell Titer Glo Cell Viability Assay (Promega) as described above. The inhibitory potency toward purified recombinant phosphodiesterase enzymes was measured using the IMAP Phosphodiesterase Assay as described in the Materials and Methods section.

PDE4B = target: T1, PDE4B (Homo sapiens, UniProt Q07343); experiment: IMAP fluorescence polarization PDE assay, PDE4B; assay type: biochemical; details: substrate cAMP; read-out: Phosphodiesterase Inhibition PDE4B cAMP IC50
T1 construct: purchased BPS Biosciences
T1 sequence (Q07343 whole entry): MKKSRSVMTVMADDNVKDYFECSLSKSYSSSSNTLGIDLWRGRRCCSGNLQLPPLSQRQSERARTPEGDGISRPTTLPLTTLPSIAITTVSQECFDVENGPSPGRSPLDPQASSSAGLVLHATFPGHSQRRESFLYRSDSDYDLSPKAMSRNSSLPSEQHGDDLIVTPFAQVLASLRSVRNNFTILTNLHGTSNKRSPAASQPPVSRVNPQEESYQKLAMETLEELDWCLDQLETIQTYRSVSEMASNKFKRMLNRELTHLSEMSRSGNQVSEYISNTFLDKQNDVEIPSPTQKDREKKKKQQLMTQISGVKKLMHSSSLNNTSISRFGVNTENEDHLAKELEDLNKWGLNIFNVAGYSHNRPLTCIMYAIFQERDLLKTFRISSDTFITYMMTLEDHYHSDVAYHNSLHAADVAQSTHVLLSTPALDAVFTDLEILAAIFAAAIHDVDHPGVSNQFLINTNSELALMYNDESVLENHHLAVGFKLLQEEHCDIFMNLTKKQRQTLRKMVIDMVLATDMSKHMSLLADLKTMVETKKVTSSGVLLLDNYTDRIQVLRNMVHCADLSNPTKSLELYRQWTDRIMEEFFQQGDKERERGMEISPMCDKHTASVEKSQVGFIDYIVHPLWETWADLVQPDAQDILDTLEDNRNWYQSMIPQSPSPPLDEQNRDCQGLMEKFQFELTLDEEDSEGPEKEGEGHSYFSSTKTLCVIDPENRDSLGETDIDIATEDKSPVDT
Protocol: (§5) MY5445 was purchased from EMD Millipore. […] Recombinant PDE enzymes were purchased from BPS Biosciences. DMSO was used as the vehicle for testing effects of all compounds.
(§6) PDE enzymatic activity was measured using IMAP fluorescence polarization assay (Molecular Devices. Inc.). […] For experiments involving cell extracts, 2×10^5 cells per well were plated on a six-well tissue culture plate 72 hours prior to cell lysis.
as §4

PDE3A = target: T2, PDE3A (Homo sapiens, UniProt Q14432); experiment: IMAP fluorescence polarization PDE assay, PDE3A; assay type: biochemical
T2 construct: purchased BPS Biosciences
T2 sequence (Q14432 whole entry): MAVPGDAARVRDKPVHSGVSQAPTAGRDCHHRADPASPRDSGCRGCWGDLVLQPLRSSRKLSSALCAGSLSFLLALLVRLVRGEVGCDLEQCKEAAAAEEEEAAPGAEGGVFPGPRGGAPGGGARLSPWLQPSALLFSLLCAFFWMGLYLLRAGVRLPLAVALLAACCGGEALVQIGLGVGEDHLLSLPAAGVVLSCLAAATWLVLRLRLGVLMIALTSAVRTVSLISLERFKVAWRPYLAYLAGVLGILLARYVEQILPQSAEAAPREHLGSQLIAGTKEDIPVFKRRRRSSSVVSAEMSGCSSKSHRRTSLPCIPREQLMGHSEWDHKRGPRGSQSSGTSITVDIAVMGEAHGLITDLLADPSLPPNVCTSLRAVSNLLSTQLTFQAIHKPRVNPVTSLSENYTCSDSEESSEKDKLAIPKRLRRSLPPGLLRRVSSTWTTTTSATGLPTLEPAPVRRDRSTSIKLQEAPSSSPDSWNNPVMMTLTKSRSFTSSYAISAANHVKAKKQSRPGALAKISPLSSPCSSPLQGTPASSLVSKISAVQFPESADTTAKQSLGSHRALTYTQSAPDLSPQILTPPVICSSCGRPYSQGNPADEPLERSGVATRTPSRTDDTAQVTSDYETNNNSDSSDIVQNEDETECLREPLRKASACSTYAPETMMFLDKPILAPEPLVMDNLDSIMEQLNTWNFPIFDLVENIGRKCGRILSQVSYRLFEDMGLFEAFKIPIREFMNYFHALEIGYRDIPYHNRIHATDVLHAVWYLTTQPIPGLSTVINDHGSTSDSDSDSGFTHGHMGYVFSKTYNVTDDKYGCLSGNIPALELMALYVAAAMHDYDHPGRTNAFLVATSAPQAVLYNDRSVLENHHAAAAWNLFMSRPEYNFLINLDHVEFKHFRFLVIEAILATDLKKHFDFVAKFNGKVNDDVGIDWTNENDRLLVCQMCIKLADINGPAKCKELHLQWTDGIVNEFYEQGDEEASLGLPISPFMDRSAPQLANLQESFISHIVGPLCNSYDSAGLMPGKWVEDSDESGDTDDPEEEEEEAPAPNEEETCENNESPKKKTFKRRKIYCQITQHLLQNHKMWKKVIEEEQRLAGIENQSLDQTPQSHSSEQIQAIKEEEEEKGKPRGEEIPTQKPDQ
Protocol: as §5, §6, §4

[2] = tested on: normal colonocytes (NCM460); experiment: Growth assay (Cell Titer Glo), normal colonocytes NCM460; assay type: cell-based, human; details: for IC50: Homo sapiens, NCM460
Description: as §1, §2, §4

PDE11A = target: T3, PDE11A (Homo sapiens, UniProt Q9HCR9); experiment: IMAP fluorescence polarization PDE assay, PDE11A; assay type: biochemical
T3 construct: purchased BPS Biosciences
T3 sequence (Q9HCR9 whole entry): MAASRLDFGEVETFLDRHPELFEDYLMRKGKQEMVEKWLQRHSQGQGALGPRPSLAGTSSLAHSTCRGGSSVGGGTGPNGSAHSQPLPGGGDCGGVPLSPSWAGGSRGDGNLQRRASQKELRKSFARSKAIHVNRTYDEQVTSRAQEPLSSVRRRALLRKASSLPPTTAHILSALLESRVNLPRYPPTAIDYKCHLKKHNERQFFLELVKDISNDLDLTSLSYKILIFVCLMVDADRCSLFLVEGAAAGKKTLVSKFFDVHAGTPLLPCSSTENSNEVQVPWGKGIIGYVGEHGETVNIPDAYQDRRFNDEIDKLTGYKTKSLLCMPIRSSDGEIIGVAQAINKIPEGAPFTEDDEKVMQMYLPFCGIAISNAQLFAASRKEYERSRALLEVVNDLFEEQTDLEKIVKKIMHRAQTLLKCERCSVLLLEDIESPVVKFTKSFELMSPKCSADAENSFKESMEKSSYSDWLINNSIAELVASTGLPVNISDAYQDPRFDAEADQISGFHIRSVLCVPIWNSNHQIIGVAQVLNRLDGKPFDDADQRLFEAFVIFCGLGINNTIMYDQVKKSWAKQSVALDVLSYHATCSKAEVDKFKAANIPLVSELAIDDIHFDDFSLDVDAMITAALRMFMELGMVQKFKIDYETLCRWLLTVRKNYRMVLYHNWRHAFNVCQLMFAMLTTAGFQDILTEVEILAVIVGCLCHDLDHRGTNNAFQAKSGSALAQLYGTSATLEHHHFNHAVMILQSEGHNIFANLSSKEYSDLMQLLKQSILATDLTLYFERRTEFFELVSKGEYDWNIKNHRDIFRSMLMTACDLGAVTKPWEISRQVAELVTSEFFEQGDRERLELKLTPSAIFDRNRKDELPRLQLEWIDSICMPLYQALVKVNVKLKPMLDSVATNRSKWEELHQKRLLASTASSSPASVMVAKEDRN
Protocol: as §5, §6, §4

[3] = tested on: HCT116 human colon tumor cells; experiment: Growth assay (Cell Titer Glo), HCT116; assay type: cell-based; details: Homo sapiens, HCT-116
Description: as §1, §2, §3, §4

PDE1A = target: T4, PDE1A (Homo sapiens, UniProt P54750); experiment: IMAP fluorescence polarization PDE assay, PDE1A; assay type: biochemical
T4 construct: purchased BPS Biosciences
T4 sequence (P54750 whole entry): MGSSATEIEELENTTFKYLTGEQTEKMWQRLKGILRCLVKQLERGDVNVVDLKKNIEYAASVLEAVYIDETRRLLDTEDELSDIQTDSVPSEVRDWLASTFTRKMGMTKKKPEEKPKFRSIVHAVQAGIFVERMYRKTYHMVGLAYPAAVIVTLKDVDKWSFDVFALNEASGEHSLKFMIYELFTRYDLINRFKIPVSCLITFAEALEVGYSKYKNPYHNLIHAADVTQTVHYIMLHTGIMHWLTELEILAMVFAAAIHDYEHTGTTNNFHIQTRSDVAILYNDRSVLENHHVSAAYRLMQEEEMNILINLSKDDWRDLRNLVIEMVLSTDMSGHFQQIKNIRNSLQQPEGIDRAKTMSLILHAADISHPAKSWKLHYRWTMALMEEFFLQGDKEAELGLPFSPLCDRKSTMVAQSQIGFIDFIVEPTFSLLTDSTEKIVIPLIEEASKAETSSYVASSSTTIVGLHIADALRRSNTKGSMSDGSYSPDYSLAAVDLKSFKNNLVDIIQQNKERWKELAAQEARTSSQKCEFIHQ
Protocol: as §5, §6, §4

PDE10A = target: T5, PDE10A (Homo sapiens, UniProt Q9Y233); experiment: IMAP fluorescence polarization PDE assay, PDE10A; assay type: biochemical; details: recombinant enzyme
T5 construct: other: substrate cGMP; recombinant enzyme; other: substrate cAMP
T5 sequence (Q9Y233 290-1055 limits assumed): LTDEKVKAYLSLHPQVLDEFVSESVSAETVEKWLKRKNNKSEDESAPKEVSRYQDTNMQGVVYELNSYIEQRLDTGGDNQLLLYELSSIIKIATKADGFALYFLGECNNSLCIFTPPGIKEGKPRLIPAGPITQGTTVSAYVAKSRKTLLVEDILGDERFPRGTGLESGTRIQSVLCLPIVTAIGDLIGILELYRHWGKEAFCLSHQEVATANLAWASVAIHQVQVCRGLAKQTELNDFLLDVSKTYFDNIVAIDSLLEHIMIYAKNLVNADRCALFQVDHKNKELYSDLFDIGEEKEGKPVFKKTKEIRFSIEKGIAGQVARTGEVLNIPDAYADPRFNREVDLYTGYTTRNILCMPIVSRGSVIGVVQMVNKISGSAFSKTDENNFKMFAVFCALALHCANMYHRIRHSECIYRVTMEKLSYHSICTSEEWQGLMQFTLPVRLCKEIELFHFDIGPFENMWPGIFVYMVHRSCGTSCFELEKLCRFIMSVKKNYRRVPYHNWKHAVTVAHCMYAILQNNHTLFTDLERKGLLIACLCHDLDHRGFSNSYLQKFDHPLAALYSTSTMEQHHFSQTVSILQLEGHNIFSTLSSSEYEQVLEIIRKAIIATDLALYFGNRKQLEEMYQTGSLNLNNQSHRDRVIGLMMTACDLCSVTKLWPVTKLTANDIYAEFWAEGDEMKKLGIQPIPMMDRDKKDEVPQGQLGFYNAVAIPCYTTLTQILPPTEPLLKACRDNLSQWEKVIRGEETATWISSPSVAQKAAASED
Protocol: as §5, §6, §4

PDE5A = target: T6, PDE5A (Homo sapiens, UniProt O76074); experiment: IMAP fluorescence polarization PDE assay, PDE5A; assay type: biochemical; details: substrate cGMP; read-out: Phosphodiesterase Inhibition PDE5A (PDE5) cGMP IC50
T6 construct: purchased BPS Biosciences
Protocol: as §5, §6, §4

[4] = tested on: SW480 human colon tumor cells; experiment: Growth assay (Cell Titer Glo), SW480; assay type: cell-based
Description: as §1, §2, §4

PDE2A = target: T7, PDE2A (Homo sapiens, UniProt O00408); experiment: IMAP fluorescence polarization PDE assay, PDE2A; assay type: biochemical
T7 construct: purchased BPS Biosciences
T7 sequence (O00408 whole entry): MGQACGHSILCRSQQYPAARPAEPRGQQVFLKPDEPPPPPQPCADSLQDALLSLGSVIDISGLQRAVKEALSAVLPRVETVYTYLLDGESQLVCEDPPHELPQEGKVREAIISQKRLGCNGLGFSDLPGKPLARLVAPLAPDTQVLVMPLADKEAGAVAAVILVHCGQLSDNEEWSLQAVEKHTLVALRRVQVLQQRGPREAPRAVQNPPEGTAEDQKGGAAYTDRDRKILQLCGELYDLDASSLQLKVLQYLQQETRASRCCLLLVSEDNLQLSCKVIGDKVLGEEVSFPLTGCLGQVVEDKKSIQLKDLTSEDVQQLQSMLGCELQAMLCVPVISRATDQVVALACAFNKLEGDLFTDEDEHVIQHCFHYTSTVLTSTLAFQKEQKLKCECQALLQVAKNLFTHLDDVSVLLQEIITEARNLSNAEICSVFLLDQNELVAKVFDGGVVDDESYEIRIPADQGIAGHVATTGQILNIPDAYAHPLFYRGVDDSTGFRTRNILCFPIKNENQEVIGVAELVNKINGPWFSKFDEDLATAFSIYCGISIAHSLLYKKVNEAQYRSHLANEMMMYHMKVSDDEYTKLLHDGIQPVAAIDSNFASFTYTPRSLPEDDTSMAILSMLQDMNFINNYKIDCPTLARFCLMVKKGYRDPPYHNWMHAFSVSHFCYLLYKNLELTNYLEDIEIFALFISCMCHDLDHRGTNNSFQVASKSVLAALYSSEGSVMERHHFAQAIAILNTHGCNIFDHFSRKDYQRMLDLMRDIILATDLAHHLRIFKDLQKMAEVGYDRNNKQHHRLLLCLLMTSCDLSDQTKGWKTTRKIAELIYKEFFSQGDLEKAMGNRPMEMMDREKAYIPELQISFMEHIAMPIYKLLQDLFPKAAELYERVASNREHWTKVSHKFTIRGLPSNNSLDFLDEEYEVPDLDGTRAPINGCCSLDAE
Protocol: as §5, §6, §4

PDE3B = target: T8, PDE3B (Homo sapiens, UniProt Q13370); experiment: IMAP fluorescence polarization PDE assay, PDE3B; assay type: biochemical; details: substrate cGMP; read-out: Phosphodiesterase Inhibition PDE3B cGMP IC50
T8 construct: purchased BPS Biosciences
Protocol: as §5, §6, §4

PDE9A = target: T9, PDE9A (Homo sapiens, UniProt O76083); experiment: IMAP fluorescence polarization PDE assay, PDE9A; assay type: biochemical; details: substrate cGMP; read-out: Phosphodiesterase Inhibition PDE9A cGMP IC50
T9 construct: purchased BPS Biosciences
Protocol: as §5, §6, §4

SMILES: COc1cc2ncnc(N3CC[C@@H](Oc4cnc5ccccc5n4)C3)c2cc1OC [PQ-10, (R)-6,7-dimethoxy-4-{3-(quinoxalin-2-yloxy)pyrrolidin-1-yl}quinazoline]
- IC50 ([1]; 72 hours of treatment, FIG. 11, read-out: IC50, growth of HT29 colon tumor cells): 130 nM
- IC50 ([1]; PDE10 Inhibitors table, read-out: Growth Inhibition IC50, HT-29): 197 nM
- IC50 (PDE4B): 17800 nM
- IC50 (PDE3A; substrate cAMP, read-out: Phosphodiesterase Inhibition PDE3A cAMP IC50): 470 nM
- IC50 (PDE3A; substrate cGMP, read-out: Phosphodiesterase Inhibition PDE3A cGMP IC50): 211 nM
- IC50 ([2]; 72 hours of treatment, FIG. 11, read-out: IC50, growth of normal colonocytes (NCM460)): 8400 nM
- IC50 ([2]; PDE10 Inhibitors table, read-out: Growth Inhibition IC50, NCM-460): > 5000 nM
- normal colonocytes (NCM460) less sensitive than colon tumor cell lines ([2]; NCM460 vs HCT116, SW-480 and HT29): approximately 40 times
- IC50 (PDE11A; substrate cAMP, read-out: Phosphodiesterase Inhibition PDE11A cAMP IC50): 30100 nM
- IC50 (PDE11A; substrate cGMP, read-out: Phosphodiesterase Inhibition PDE11A cGMP IC50): 13200 nM
- IC50 ([3]; 72 hours of treatment, FIG. 11, read-out: IC50, growth of HCT116 colon tumor cells): 290 nM
- IC50 ([3]; PDE10 Inhibitors table, read-out: Growth Inhibition IC50, HCT-116): 201 nM
- IC50 (PDE1A; substrate cAMP, read-out: Phosphodiesterase Inhibition PDE1A cAMP IC50): 29200 nM
- IC50 (PDE1A; substrate cGMP, read-out: Phosphodiesterase Inhibition PDE1A cGMP IC50): 8800 nM
- IC50 (PDE10A; Phosphodiesterase Inhibition PDE10A cAMP IC50, substrate cAMP): 5.38 nM
- IC50 (PDE10A; Phosphodiesterase Inhibition PDE10A cGMP IC50, substrate cGMP): 3.88 nM
- IC50 (PDE5A): 1800 nM
- IC50 ([4]; 72 hours of treatment, FIG. 11C, read-out: IC50, growth of SW-480 colon tumor cells): 220 nM
- IC50 ([4]; PDE10 Inhibitors table, read-out: Growth Inhibition IC50, SW-480): 199 nM
- IC50 (PDE2A; substrate cAMP, read-out: Phosphodiesterase Inhibition PDE2A cAMP IC50): 7000 nM
- IC50 (PDE2A; substrate cGMP, read-out: Phosphodiesterase Inhibition PDE2A cGMP IC50): 3700 nM
- IC50 (PDE3B): 273 nM
- IC50 (PDE9A): > 200000 nM
